From patent publication US20060178374A1, “Aminoheteroaryl compounds as protein kinase inhibitors” (AGOURON PHARMACEUTICALS, INC., priority 2004, published 2006)

Molecular target: HGFR (c-Met) (Homo sapiens, UniProt P08581)
Experiment: HGFR Continuous-Coupled Spectrophotometric Assay
Format: biochemical
Conditions: HGFR enzyme 50 nM, Met-2 peptide substrate, 37° C.
Protocol: The general procedure is as follows: compounds and kinase assay reagents are introduced into test wells. The assay is initiated by addition of the kinase enzyme. Enzyme inhibitors reduce the measured activity of the enzyme.
In the continuous-coupled spectrophotometric assay the time-dependent production of ADP by the kinase is determined by analysis of the rate of consumption of NADH by measurement of the decrease in absorbance at 340 nm. As the PK produces ADP it is re-converted to ATP by reaction with phosphoenol pyruvate and pyruvate kinase. Pyruvate is also produced in this reaction. Pyruvate is subsequently converted to lactate by reaction with lactate dehydrogenase, which simultaneously converts NADH to NAD.
HGFR Continuous-Coupled Spectrophotometric Assay
This assay analyzes the tyrosine kinase activity of HGFR on the Met-2 substrate peptide, a peptide derived from the activation loop of the HGFR.
• 1. […] Dissolve up in 200 mM HEPES, pH 7.5 at 10 mM stock. • 3. 1 M PEP (phospho-enol-pyruvate) in 200 mM HEPES, pH 7.5 • 4. 100 mM NADH (B-Nicotinamide Adenine Dinucleotide, Reduced Form) in 200 mM HEPES, pH 7.5 • 5. 4 M MgCl2 (Magnesium Chloride) in ddH2O 6. 1 M DTT (Dithiothreitol) in 200 mM HEPES, pH 7.5 • 7. 15 Units/mL LDH (Lactic Dehydrogenase) • 8. 15 Units/mL PK (Pyruvate Kinase) • 9. 5M NaCl dissolved in ddH2O • 10. Tween-20 (Protein Grade) 10% Solution • 11. 1 M HEPES buffer: (N-[2-Hydroxethyl]piperazine-N-[2-ethanesulfonic acid]) Sodium Salt. Dissolve in ddH2O, adjust pH to 7.5, bring volume to 1 L. Filter at 0.1 μm. • 12. […] 100% DMSO (SIGMA) • 14. […] Beckman DU-650 w/ micro cell holders • 18. Beckman 4-position micro cell cuvette Procedure:
Prep Dilution Buffer (DB) for Enzyme (For 30 mL prep) • 1. DB final concentration is 2 mM DTT, 25 mM NaCl2, 5 mM MgCl2, 0.01% Tween-20, and 50 mM HEPES buffer, pH 7.5. • 2. Make up 50 mM HEPES by adding 1.5 mL 1 M HEPES into 28.1 mL of ddH2O. Add rest of the reagents. Into 50 mL conical vial, add 60 μL of 1M DTT, 150 μL 5M NaCl2, 150 μL 1M MgCl2, and 30 μL of 10% Tween-20 to give total volume of 30 mL. • 3. Vortex for 5-10 seconds. • 4. Aliquot out DB at 1 mL/tube and label tubes as “DB HGFR” • 5. Note: This can be prepared and stored ahead of time. • 6. Freeze un-used aliquots in microcentrifuge tubes at −20° C. freezer.
Prep Compounds • 1. For compound dilution plate, add 4 μL of 10 mM stock into column 1 of plate, and bring volume to 100 μL with 100% DMSO. • 2. Set up the Precision 2000 dilution method. A final concentration of 200 μM compound in 50% DMSO, 100 mM HEPES (1:2 serial dilution).
Prep Coupled Enzymatic Buffer:
1. Final concentration in assay:
• 2. For a 10 mL reaction buffer add 10 μL of 1M PEP, 33 μL of 100 mM NADH, 50 μL of 4M MgCl2, 20 μL of 1M DTT, 6 μL of 500 mM ATP, and […] of 10 mM Met-2 peptide into 100 mM HEPES buffer pH 7.5 and vortex/mix. • 3. Add coupling enzymes, LDH and PK, into reaction mix. Mix by gentle inversion.
1. Spectrophotometer settings:
• 2. Add 85 μL of CE reaction mix into each well of assay plate. • 3. Add 5 μL of diluted compound into a well of the assay plate. • 4. Add 5 μL of 50% DMSO for negative control into last column of assay plate. • 5. Mix with multi-channel pipettor or orbital shaker. • 6. Pre-incubate for 10 minutes at 37° C. • 7. Add 10 μL of 500 nM HGFR to each well of assay plate; the final HGFR concentration is 50 nM in a total final volume of 100 μL. • 8. Measure activity for 10 minutes at λ=340 nm and 37° C.
Ki data were obtained using the HGFR Continuous-Coupled Spectrophotometric Assay, and IC50 data were obtained using the Cellular HGFR Autophosphorylation Assay, both of which are described above.

HGFR (c-Met), sequence (P08581 974-1390): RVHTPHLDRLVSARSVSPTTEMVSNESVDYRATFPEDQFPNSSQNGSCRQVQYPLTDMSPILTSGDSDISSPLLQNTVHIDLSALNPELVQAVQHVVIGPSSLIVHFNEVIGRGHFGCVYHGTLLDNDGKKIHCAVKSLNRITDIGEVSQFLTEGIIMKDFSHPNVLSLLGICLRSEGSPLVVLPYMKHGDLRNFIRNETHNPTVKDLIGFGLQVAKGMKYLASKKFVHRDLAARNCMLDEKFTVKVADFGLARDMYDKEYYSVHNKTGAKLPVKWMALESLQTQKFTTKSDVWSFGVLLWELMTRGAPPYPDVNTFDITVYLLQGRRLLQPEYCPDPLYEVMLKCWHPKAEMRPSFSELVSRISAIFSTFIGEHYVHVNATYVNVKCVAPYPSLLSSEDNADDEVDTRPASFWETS

**Q.** Which Ki does the source give for `COc1cc(-c2cnc(N)c(OC(C)c3c(Cl)ccc(F)c3Cl)c2)ccc1CN1C[C@@H](C)N[C@@H](C)C1` (stereo partly drawn) [Example 27, 3-[1-(2,6-dichloro-3-fluorophenyl)ethoxy]-5-(4-{[(3R,5S)-3,5-dimethylpiperazin-1-yl]methyl}-3-methoxyphenyl)pyridin-2-amine] here?
**A.** Its Ki is 21.6 nM.

**Q.** With `COc1cc(-c2cnc(N)c(OC(C)c3c(Cl)ccc(F)c3Cl)c2)ccc1C(=O)N1CCNCC1` (stereo not drawn) [Example 28, 3-[1-(2,6-dichloro-3-fluorophenyl)ethoxy]-5-[3-methoxy-4-(piperazin-1-ylcarbonyl)phenyl]pyridin-2-amine] as the compound, how does the Ki read?
**A.** Its Ki is 26.4 nM.

**Q.** Which Ki does the source give for `COc1cc(-c2cnc(N)c(OC(C)c3c(Cl)ccc(F)c3Cl)c2)ccc1CN1CCNCC1` (stereo not drawn) [Example 29, 3-[1-(2,6-dichloro-3-fluorophenyl)ethoxy]-5-[3-methoxy-4-(piperazin-1-ylmethyl)phenyl]pyridin-2-amine] here?
**A.** The Ki was 12.3 nM.

**Q.** With `CC(Oc1cc(-c2ccc(C3(O)CCNCC3)nc2)cnc1N)c1c(Cl)ccc(F)c1Cl` (stereo not drawn) [Example 30] as the compound, how does the Ki read?
**A.** Its Ki is 21.9 nM.

**Q.** With `COc1cc(-c2cnc(N)c(OC(C)c3c(Cl)ccc(F)c3Cl)c2)ccc1COC(=O)N(C)C` (stereo not drawn) [Example 31, 4-{6-amino-5-[1-(2,6-dichloro-3-fluorophenyl)ethoxy]pyridin-3-yl}-2-methoxybenzyl dimethylcarbamate] as the compound, how does the Ki read?
**A.** The Ki was 149 nM.

**Q.** Which Ki does the source give for `CC(Oc1cc(-c2ccc(OCC(=O)N3CCNCC3)cc2)cnc1N)c1c(Cl)ccc(F)c1Cl` (stereo not drawn) [Example 33, 2-(4-{6-Amino-5-[1-(2,6-dichloro-3-fluoro-phenyl)-ethoxy]-pyridin-3-yl}-phenoxy)-1-piperazin-1-yl-ethanone] here?
**A.** Its Ki is 14700 nM.

**Q.** How did the Ki turn out when `CC(Oc1cc(-c2ccc(OC3CCNCC3)cc2)cnc1N)c1c(Cl)ccc(F)c1Cl` (stereo not drawn) [Example 34, 3-[1-(2,6-Dichloro-3-fluoro-phenyl)-ethoxy]-5-[4-(piperidin-4-yloxy)-phenyl]-pyridin-2-ylamine] was run?
**A.** Its Ki is 40 nM.

**Q.** With `C[C@@H]1CN(C(=O)c2ccc(-c3cnc(N)c(OC4CCCCc5ccc(F)cc54)c3)cc2)C[C@H](C)N1` (stereo partly drawn) [Example 36, {4-[6-Amino-5-(3-fluoro-6,7,8,9-tetrahydro-5H-benzocyclohepten-5-yloxy)-pyridin-3-yl]-phenyl}-((3R,5S)-3,5-dimethyl-piperazin-1-yl)-methanone] as the compound, how does the Ki read?
**A.** Its Ki is 6280 nM.

**Q.** How did the Ki turn out when `Nc1ncc(-c2ccc(OCCN3CCCC3)cc2)cc1OC1CCCCc2ccc(F)cc21` (stereo not drawn) [Example 37, 3-(3-Fluoro-6,7,8,9-tetrahydro-5H-benzocyclohepten-5-yloxy)-5-[4-(2-pyrrolidin-1-yl-ethoxy)-phenyl]-pyridin-2-ylamine] was run?
**A.** The Ki was 8270 nM.

**Q.** Which Ki does the source give for `CS(=O)(=O)Nc1ccc(-c2cnc(N)c(OC3CCCCc4ccc(F)cc43)c2)cc1` (stereo not drawn) [Example 38, N-{4-[6-Amino-5-(3-fluoro-6,7,8,9-tetrahydro-5H-benzocyclohepten-5-yloxy)-pyridin-3-yl]-phenyl}-methanesulfonamide] here?
**A.** The Ki was 7120 nM.

**Q.** Which Ki does the source give for `CC(Oc1cc(-c2ccc(NC(=O)N3CCC(NC4CC4)CC3)cc2)cnc1N)c1c(Cl)ccc(F)c1Cl` (stereo not drawn) [Example 39, 4-Cyclopropylamino-piperidine-1-carboxylic acid (4-{6-amino-5-[1-(2,6-dichloro-3-fluoro-phenyl)-ethoxy]-pyridin-3-yl}-phenyl)-amide] here?
**A.** The Ki was 95 nM.

**Q.** `CC(Oc1cc(-c2ccc(NC(=O)N3CCNCC3)cc2)cnc1N)c1c(Cl)ccc(F)c1Cl` (stereo not drawn) [Example 40, Piperazine-1-carboxylic acid (4-{6-amino-5-[1-(2,6-dichloro-3-fluoro-phenyl)-ethoxy]-pyridin-3-yl}-phenyl)-amide] was tested. Which Ki did it give?
**A.** Its Ki is 88 nM.

**Q.** `CCOC(=O)c1[nH]c(C)c(-c2cnc(N)c(OC(C)c3c(Cl)ccc(F)c3Cl)c2)c1C` (stereo not drawn) [Example 41, 4-{6-Amino-5-[1-(2,6-dichloro-3-fluoro-phenyl)-ethoxy]-pyridin-3-yl}-3,5-dimethyl-1H-pyrrole-2-carboxylic acid ethyl ester] was tested. Which Ki did it give?
**A.** Its Ki is 2090 nM.

**Q.** Which Ki does the source give for `Cc1[nH]c(C(=O)O)c(C)c1-c1cnc(N)c(OC(C)c2c(Cl)ccc(F)c2Cl)c1` (stereo not drawn) [Example 42, 4-{6-Amino-5-[1-(2,6-dichloro-3-fluoro-phenyl)-ethoxy]-pyridin-3-yl}-3,5-dimethyl-1H-pyrrole-2-carboxylic acid] here?
**A.** The Ki was 1250 nM.

**Q.** How did the Ki turn out when `Cc1[nH]c(C(=O)NCCCN(C)C)c(C)c1-c1cnc(N)c(OC(C)c2c(Cl)ccc(F)c2Cl)c1` (stereo not drawn) [Example 43, 4-{6-Amino-5-[1-(2,6-dichloro-3-fluoro-phenyl)-ethoxy]-pyridin-3-yl}-3,5-dimethyl-1H-pyrrole-2-carboxylic acid (3-dimethylamino-propyl)-amide] was run?
**A.** The Ki was 451 nM.

**Q.** Which Ki does the source give for `Cc1[nH]c(C(=O)NCCN(C)C)c(C)c1-c1cnc(N)c(OC(C)c2c(Cl)ccc(F)c2Cl)c1` (stereo not drawn) [Example 44, 4-{6-Amino-5-[1-(2,6-dichloro-3-fluoro-phenyl)-ethoxy]-pyridin-3-yl}-3,5-dimethyl-1H-pyrrole-2-carboxylic acid (2-dimethylamino-ethyl)-amide] here?
**A.** The Ki was 262 nM.

**Q.** With `CC(Oc1cc(-c2cccc(NC(=O)N3CCNCC3)c2)cnc1N)c1c(Cl)ccc(F)c1Cl` (stereo not drawn) [Example 45, Piperazine-1-carboxylic acid (3-{6-amino-5-[1-(2,6-dichloro-3-fluoro-phenyl)-ethoxy]-pyridin-3-yl}-phenyl)-amide] as the compound, how does the Ki read?
**A.** Its Ki is 96 nM.

**Q.** `C[C@@H](Oc1nc(-c2ccc(C(=O)O)cc2)cnc1N)c1c(Cl)ccc(F)c1Cl` [Example 47, 4-{5-Amino-6-[(R)-1-(2,6-dichloro-3-fluoro-phenyl)-ethoxy]-pyrazin-2-yl}-benzoic acid] was tested. Which Ki did it give?
**A.** Its Ki is 154 nM.

**Q.** For `C[C@@H](Oc1nc(-c2ccc(C(=O)N3CCNCC3)cc2)cnc1N)c1c(Cl)ccc(F)c1Cl` [Example 48, (4-{5-Amino-6-[(R)-1-(2,6-dichloro-3-fluoro-phenyl)-ethoxy]-pyrazin-2-yl}-phenyl)-piperazin-1-yl-methanone], which Ki is on record?
**A.** Its Ki is 27 nM.

**Q.** Which Ki does the source give for `C[C@@H](Oc1nc(-c2ccc(C(=O)N3CCN(C(=O)OC(C)(C)C)CC3)cc2)cnc1N)c1c(Cl)ccc(F)c1Cl` [Example 49, 4-(4-{5-Amino-6-[(R)-1-(2,6-dichloro-3-fluoro-phenyl)-ethoxy]-pyrazin-2-yl}-benzoyl)-piperazine-1-carboxylic acid tert-butyl ester] here?
**A.** Its Ki is 335 nM.

**Q.** For `CC(Oc1cc(Br)cnc1N)c1c(C#N)ccc(N(C)C)c1Cl` (stereo not drawn) [Example 50, 2-{1-[(2-amino-5-bromopyridin-3-yl)oxy]ethyl}-3-chloro-4-(dimethylamino)benzonitrile], which Ki is on record?
**A.** The Ki was 1840 nM.

**Q.** With `CC(Oc1cc(Br)cnc1N)c1c(C#N)ccc(F)c1Cl` (stereo not drawn) [Example 51, 2-[1-(2-Amino-5-bromo-pyridin-3-yloxy)-ethyl]-3-chloro-4-fluoro-benzonitrile] as the compound, how does the Ki read?
**A.** Its Ki is 2090 nM.

**Q.** With `CC(Oc1cc(-c2ccc(C(=O)N3CCC(N4CCCC4)CC3)cc2)cnc1N)c1ccc(Cl)cc1Cl` (stereo not drawn) [Example 52, (4-{6-Amino-5-[1-(2,4-dichloro-phenyl)-ethoxy]-pyridin-3-yl}-phenyl)-(4-pyrrolidin-1-yl-piperidin-1-yl)-methanone] as the compound, how does the Ki read?
**A.** The Ki was 2140 nM.

Same assay, conditions: compound at 1 μM

**Q.** Which inhibition at 1 µM does the source give for `Nc1ncc(Br)cc1OC1CCCCc2ccc(F)cc21` (stereo not drawn) [Example 35, 5-Bromo-3-(3-fluoro-6,7,8,9-tetrahydro-5H-benzocyclohepten-5-yloxy)-pyridin-2-ylamine] here?
**A.** Its inhibition at 1 µM is 9%.
